From US20200138825A1, “METHOD OF TREATING MALIGNANT RHABDOID TUMOR OF THE OVARY (MRTO)/SMALL CELL CANCER OF THE OVARY OF THE HYPERCALCEMIC TYPE(SCCOHT) WITH AN EZH2 INHIBITOR” (Epizyme, Inc., priority 2015, published 2020)
pIC50: −log10 of the molar value.

What was measured:
Format in all cases: cell-based
[1] = tested on: SMARCA4-negative ovarian cell lines; assay: Long term 2D proliferation assay, SMARCA4-negative ovarian cell lines; details: day 14, SMARCA4-negative cell lines
Description: (§1) FIG. 13B is a pair of graphs depicting the results of a long term 2D proliferation assay for Compound D in SMARCA4 and ARID1A ovarian cell lines. The day 14 IC50 values are shown.
(§2) A panel of ovarian cancer cell lines of different histologies was subjected to proliferation assays in 2-D tissue culture for 14 days in the presence of increasing concentrations of an EZH2 inhibitor. Selected cell lines were also tested in 3-D cultures. […] In contrast, mutations in ARID1A, another SWI/SNF component, were not observed to broadly confer sensitivity to EZH2 inhibition in ovarian cancer cell lines in either 2-D or 3-D in vitro assays.

[2] = tested on: ARID1A mutated ovarian cell lines; assay: Long term 2D proliferation assay, ARID1A mutated ovarian cell lines; details: day 14, ARID1A mutated ovarian cell lines
Description: as §1, §2

SCCOHT cell line Bin-67 = assay: 14 day proliferation study in Bin-67; details: 336 h; Bin-67, 14 day proliferation, 0.01-10 μM
Description: FIG. 13C is a graph displaying the results of a 14 day proliferation study with Compound D in the SMARCA4- and SMARCA2-negative small cell carcinoma of the ovary, hypercalcemic type (SCCOHT) cell line Bin-67. Growth curves are shown for 8 different treatment conditions ranging from 0.01-10 μM.
as §2

H3K27me3 in Bin-67 cells = assay: Western Blot of H3K27me3 levels in Bin-67 cells; details: day 14, all concentrations
[3] = tested on: ARID1A-mutated ovarian cell lines; assay: 3D growth assay (Scivax Nanoculture), ARID1A-mutated ovarian cell lines; details: after 14 days
Description: 3D assays were performed using the Scivax Nanoculture technology whereby the micro-patterned scaffold mimics the ECM.
as §2

SCCOHT cell lines = assay: 14-day proliferation assays, SCCOHT cell lines; details: 336 h, three SCCOHT cell lines
Description: as §2

A427 = assay: EZH2 inhibition sensitivity, A427; details: Homo sapiens, A-427, SMARCA2 mRNA/protein loss, SMARCA4 Mutations, KRAS Mutations, read-out: Compound D IC50
Excerpt: (§3) Sensitivity to EZH2 inhibition was examined in various cancer cell lines with similar mutations or loss of SWI/SNF components. Table 7 summarizes the EZH2 activity in additional SWI/SNF altered cancers, including lung adenocarcinoma.

NCl-H23 = assay: EZH2 inhibition sensitivity, NCl-H23; details: SMARCA2 mRNA/protein loss, SMARCA4 Mutations, KRAS Mutations, read-out: Compound D IC50
Excerpt: as §3

NCl-H522 = assay: EZH2 inhibition sensitivity, NCl-H522; details: SMARCA2 mRNA/protein loss, SMARCA4 Mutations, KRAS No mutations or info not available, read-out: Compound D IC50
Excerpt: as §3

A549 = assay: EZH2 inhibition sensitivity, A549 (Proquinase 3D); details: Homo sapiens, Proquinase 3D IC50, SMARCA4 Mutations, KRAS Mutations, read-out: Compound D IC50
Excerpt: as §3

NCl-H1299 = assay: EZH2 inhibition sensitivity, NCl-H1299; details: SMARCA4 Mutations, read-out: Compound D IC50
Excerpt: as §3

NClH838 = assay: EZH2 inhibition sensitivity, NClH838; details: SMARCA4 Mutations, read-out: Compound D IC50
Excerpt: as §3

NClH1793 = assay: EZH2 inhibition sensitivity, NClH1793; details: SMARCA4 Mutations, read-out: Compound D IC50
Excerpt: as §3

Calu-6 = assay: EZH2 inhibition sensitivity, Calu-6; details: Homo sapiens, KRAS Mutations, read-out: Compound D IC50
Excerpt: as §3

NCl-H441 = assay: EZH2 inhibition sensitivity, NCl-H441 (Proquinase 3D); details: Proquinase 3D IC50, KRAS Mutations, read-out: Compound D IC50
Excerpt: as §3

H460 = assay: EZH2 inhibition sensitivity, H460 (Proquinase 3D); details: Homo sapiens, NCI-H460, Proquinase 3D IC50, KRAS Mutations, read-out: Compound D IC50
Excerpt: as §3

NClH2122 = assay: EZH2 inhibition sensitivity, NClH2122; details: KRAS Mutations, read-out: Compound D IC50
Excerpt: as §3

NClH1734 = assay: EZH2 inhibition sensitivity, NClH1734; details: KRAS Mutations, read-out: Compound D IC50
Excerpt: as §3

NClH1373 = assay: EZH2 inhibition sensitivity, NClH1373; details: KRAS Mutations, read-out: Compound D IC50
Excerpt: as §3

NClH1993 = assay: EZH2 inhibition sensitivity, NClH1993; details: no mutations or info not available in SMARCA2, SMARCA4, KRAS, read-out: Compound D IC50
Excerpt: as §3

NClH2110 = assay: EZH2 inhibition sensitivity, NClH2110; details: no mutations or info not available in SMARCA2, SMARCA4, KRAS, read-out: Compound D IC50
Excerpt: as §3

Calu-3 = assay: EZH2 inhibition sensitivity, Calu-3; details: Homo sapiens, no mutations or info not available in SMARCA2, SMARCA4, KRAS, read-out: Compound D IC50
Excerpt: as §3

NClH1563 = assay: EZH2 inhibition sensitivity, NClH1563; details: no mutations or info not available in SMARCA2, SMARCA4, KRAS, read-out: Compound D IC50
Excerpt: as §3

HCC827 = assay: EZH2 inhibition sensitivity, HCC827 (Proquinase 3D); details: Homo sapiens, Proquinase 3D IC50, no mutations or info not available in SMARCA2, SMARCA4, KRAS, read-out: Compound D IC50
Excerpt: as §3

- pIC50 (A427): 5.64
- pIC50 (NCl-H23): 5.00
- pIC50 (NCl-H522): 5.94
- pIC50 (A549): 5.00
- pIC50 (NCl-H1299): 5.00
- pIC50 (NClH838): 5.00
- pIC50 (NClH1793): 5.00
- pIC50 (Calu-6): 9.00
- pIC50 (NCl-H441): 5.00
- pIC50 (H460): 5.00
- pIC50 (NClH2122): 5.00
- pIC50 (NClH1734): 5.00
- pIC50 (NClH1373): 5.00
- pIC50 (NClH1993): 5.00
- pIC50 (NClH2110): 5.00
- pIC50 (Calu-3): 5.00
- pIC50 (NClH1563): 5.00
- pIC50 (HCC827): 5.00
SMILES: CCN(c1cc(-c2ccc(CN3CCOCC3)cc2)cc(C(=O)NCc2c(C)cc(C)[nH]c2=O)c1C)[C@H]1CC[C@H](N(C)C)CC1 [Compound D]
- anti-proliferative effects [1]: anti-proliferative effects
- anti-proliferative effects [2]: do not
- pIC50 (SCCOHT cell line Bin-67): 8.00
- H3K27me3 levels (H3K27me3 in Bin-67 cells): completely reduced
- 3D growth effects [3]: No effects were observed
- pIC50 (SCCOHT cell lines): 7.77 to 8.30
